The target in the assay is Beta-galactosidase (Escherichia coli) (UniProt Q8VNN2). Put plainly: E. coli beta-galactosidase enzyme inhibition, dose response, counter-screen, biochemical (AID 1966). Particulars: purified E. coli beta-galactosidase enzyme activity.

The source made the active and inactive calls. No rule for the calls is given here.

Chain of Beta-galactosidase (Escherichia coli) (Q8VNN2 whole entry, looked up): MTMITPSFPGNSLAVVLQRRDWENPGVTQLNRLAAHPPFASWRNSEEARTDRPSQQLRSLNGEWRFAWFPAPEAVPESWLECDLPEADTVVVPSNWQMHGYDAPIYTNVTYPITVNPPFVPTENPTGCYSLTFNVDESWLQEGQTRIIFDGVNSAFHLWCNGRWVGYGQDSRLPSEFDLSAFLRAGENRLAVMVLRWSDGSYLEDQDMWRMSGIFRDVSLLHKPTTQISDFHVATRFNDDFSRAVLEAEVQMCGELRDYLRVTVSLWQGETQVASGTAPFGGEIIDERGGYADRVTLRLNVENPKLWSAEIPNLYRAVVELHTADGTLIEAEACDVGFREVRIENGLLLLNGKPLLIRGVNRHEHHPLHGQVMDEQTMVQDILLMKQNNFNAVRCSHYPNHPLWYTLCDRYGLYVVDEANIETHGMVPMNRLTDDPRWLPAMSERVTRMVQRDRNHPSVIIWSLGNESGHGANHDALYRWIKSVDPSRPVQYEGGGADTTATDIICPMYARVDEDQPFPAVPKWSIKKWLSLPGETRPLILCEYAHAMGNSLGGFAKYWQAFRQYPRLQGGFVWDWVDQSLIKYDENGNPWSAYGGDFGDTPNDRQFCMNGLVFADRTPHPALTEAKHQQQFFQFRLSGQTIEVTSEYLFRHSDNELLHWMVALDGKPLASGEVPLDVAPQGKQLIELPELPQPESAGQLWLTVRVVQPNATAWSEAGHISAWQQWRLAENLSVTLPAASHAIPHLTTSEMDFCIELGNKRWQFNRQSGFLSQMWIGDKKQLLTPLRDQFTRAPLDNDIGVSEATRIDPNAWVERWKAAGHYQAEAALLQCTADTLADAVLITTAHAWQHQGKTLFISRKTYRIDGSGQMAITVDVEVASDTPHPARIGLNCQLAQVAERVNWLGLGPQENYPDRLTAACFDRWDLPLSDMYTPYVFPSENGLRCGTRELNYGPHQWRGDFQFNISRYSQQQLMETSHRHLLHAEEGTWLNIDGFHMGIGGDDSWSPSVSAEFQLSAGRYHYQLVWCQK

The IC50 is the concentration needed to halve the response being measured. With `CCNC(=O)C1CCCN1C(=O)C(CCCN=C(N)N)NC(=O)C(CC(C)C)NC(=O)C(Cc1cn(Cc2ccccc2)cn1)NC(=O)C(Cc1ccc(O)cc1)NC(=O)C(CO)NC(=O)C(Cc1c[nH]c2ccccc12)NC(=O)C(Cc1cnc[nH]1)NC(=O)C1CCC(=O)N1` (stereo unspecified), the IC50 is > 31.5 µM (inactive).

The values above are taken from PubChem BioAssay AID1966 (Sanford-Burnham Center for Chemical Genomics, 2009).
